Data reported in patent US10138207B2, “Benzomorphan analogs and the use thereof” (priority 2012, dated 2018).
Like-named read-outs stand apart in the source and are kept apart here.

Columns and labels:
[1] = molecular target: T1, μ-opioid receptor (Homo sapiens, UniProt P35372); assay: μ-opioid receptor radioligand dose-displacement binding assay ([3H]-diprenorphine); set-up: expressed in transfected cells; host or cells: HEK-293 or CHO
Protocol: Radioligand dose-displacement binding assays for μ-opioid receptors used 0.3 nM [^3H]-diprenorphine (Perkin Elmer, Shelton, Conn.), with […] membrane protein/well in a final volume of 500 μl binding buffer (10 mM MgCl2, 1 mM EDTA, 5% DMSO, 50 mM HEPES, pH 7.4). Reactions were carried out in the absence or presence of increasing concentrations of unlabeled naloxone. All reactions were conducted in 96-deep well polypropylene plates for 2 hr at room temperature. […] The data were analyzed using the one-site competition curve fitting functions in GraphPad PRISM™ v. 3.0 or higher (San Diego, Calif.), or an in-house function for one-site competition curve-fitting.

[2] = molecular target: T1, μ-opioid receptor; assay: μ-opioid receptor [35S]GTPγS functional assay, HEK-293 or CHO cells; details: for Emax: read-out: GTPγS μ Emax
[3] = molecular target: T2, κ opioid receptor (Homo sapiens, UniProt P41145); assay: biochemical; assay type: binding; set-up: expressed in transfected cells; host or cells: HEK 293 (in-house membrane prep); details: HEK-293 or CHO cells
[4] = molecular target: T2, κ opioid receptor; assay: κ-opioid receptor [35S]GTPγS functional assay, HEK-293 or CHO cells; assay type: biochemical; set-up: expressed in transfected cells; host or cells: U-2 OS (in-house membranes); details: for Emax: relative to U69,593
Protocol: Membranes from recombinant HEK-293 cells, CHO or U-2 OS cells expressing the recombinant human κ opioid receptor (κ) were prepared by lysing cells in ice cold hypotonic buffer (2.5 mM MgCl2, 50 mM HEPES, pH 7.4) (10 mL/10 cm dish) followed by homogenization with a tissue grinder/Teflon pestle. Membranes from a cell line naturally expressing kappa opioid receptors can also be used. Membranes were collected by centrifugation at 30,000×g for 15 min at 4° C. and pellets were resuspended in hypotonic buffer to a final concentration of 1-3 mg/mL. Protein concentrations were determined using the BioRad protein assay reagent with bovine serum albumen as standard. Aliquots of κ receptor membranes were stored at −80° C.
Plates were incubated for 30 min at a temperature of about 25° C. with shaking.

[5] = molecular target: T2, κ opioid receptor; assay: κ-opioid receptor [35S]GTPγS functional assay, U-2 OS cells; assay type: biochemical; set-up: expressed in transfected cells; host or cells: U-2 OS (in-house membranes); details: U-2 OS cells
[6] = molecular target: T1, μ-opioid receptor; assay: μ-opioid receptor [35S]GTPγS functional assay, U-2 OS cells; assay type: biochemical; set-up: expressed in transfected cells; host or cells: U-2 OS; details: U-2 OS cells
[7] = HEK-293 or CHO cells, read-out: Ki Opioid Receptor μ
[8] = HEK-293 or CHO cells, read-out: GTPγS κ EC50

T2 sequence (P41145 whole entry): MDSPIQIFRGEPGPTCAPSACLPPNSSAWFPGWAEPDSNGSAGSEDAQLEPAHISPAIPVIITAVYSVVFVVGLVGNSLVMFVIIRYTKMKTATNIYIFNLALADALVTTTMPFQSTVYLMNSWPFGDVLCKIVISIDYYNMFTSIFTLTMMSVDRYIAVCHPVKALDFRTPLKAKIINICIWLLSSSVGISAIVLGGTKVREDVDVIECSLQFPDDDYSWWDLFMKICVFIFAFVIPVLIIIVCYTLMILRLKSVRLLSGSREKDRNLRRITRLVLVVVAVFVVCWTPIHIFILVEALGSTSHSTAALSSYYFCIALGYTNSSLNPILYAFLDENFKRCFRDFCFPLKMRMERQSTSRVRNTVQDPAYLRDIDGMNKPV
T1 sequence (P35372 whole entry, species assumed): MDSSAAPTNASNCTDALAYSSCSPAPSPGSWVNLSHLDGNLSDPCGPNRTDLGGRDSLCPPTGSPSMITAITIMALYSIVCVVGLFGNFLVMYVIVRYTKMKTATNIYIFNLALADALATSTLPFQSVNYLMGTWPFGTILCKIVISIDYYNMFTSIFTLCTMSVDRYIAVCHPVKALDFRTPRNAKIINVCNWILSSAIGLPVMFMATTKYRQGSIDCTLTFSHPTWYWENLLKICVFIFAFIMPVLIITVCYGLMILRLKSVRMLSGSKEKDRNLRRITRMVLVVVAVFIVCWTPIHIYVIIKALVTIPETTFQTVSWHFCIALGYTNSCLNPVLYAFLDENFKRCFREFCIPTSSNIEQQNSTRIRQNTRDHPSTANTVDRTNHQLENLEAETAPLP

Row | SMILES | EC50 [2] [nM] | Emax [2] [%] | Ki [3] [µM] | Emax ([4]; HEK-293 or CHO cells) [%] | Ki [1] [nM] | also measured
1 | COc1ccc2c(c1)[C@@]1(C)CCN(CC3CC3)C(C2)C1N(C)C(=O)/C=C/c1ccoc1 (stereo in doubt) [Compound 57, (E)-N-((2R,6R,11S)-3-(cyclopropylmethyl)-8-methoxy-6-methyl-1,2,3,4,5,6-hexahydro-2,6-methanobenzo[d]azocin-11-yl)-3-(furan-3-yl)-N-methylacrylamide] | 315 ± 47.9 | 112 ± 7.22 | 0.00461 ± 0.00143 | 85.7 ± 3.93 | – | Ki [1, 7]: 236 ± 70.2 nM; EC50 [4, 8]: 0.351 ± 0.115 µM
2 | COc1ccc2c(c1)[C@@]1(C)CCN(C)C(C2)C1N1CCCC(C(=O)O)C1 (stereo partly drawn) [Compound 74, 1-((6R)-8-methoxy-3,6-dimethyl-1,2,3,4,5,6-hexahydro-2,6-methanobenzo[d]azocin-11-yl)piperidine-3-carboxylic acid] | 639 ± 147 | 31.7 ± 0.67 | 0.0241 ± 0.00593 | 53 ± 2.31 | 230 ± 43.8 | EC50 [4]: 0.637 ± 0.0651 µM
3 | COc1ccc2c(c1)[C@@]1(C)CCN(C)C(C2)[C@@H]1OCC(N)=O [Compound 3, 2-(((6R,11R)-8-methoxy-3,6-dimethyl-1,2,3,4,5,6-hexahydro-2,6-methanobenzo[d]azocin-11-yl)oxy)acetamide] | – | – | – | – | > 20000 | Ki ([3]; bound in μM): > 20 µM
4 | COc1ccc2c(c1)C1(C)CCN(C)C(C2)C1=NOCC(=O)O (centres unmarked) [Compound 1, 2-(((8-methoxy-3,6-dimethyl-1,2,3,4,5,6-hexahydro-2,6-methanobenzo[d]azocin-11-ylidene)amino)oxy)acetic Acid] | – | – | 12.1 | – | > 20000 | –
5 | CN(C(=O)/C=C/c1ccoc1)[C@H]1C2Cc3ccc(O)cc3[C@@]1(C)CCN2CC1CC1 [Compound 83, (E)-N-((6R,11R)-3-(cyclopropylmethyl)-8-hydroxy-6-methyl-1,2,3,4,5,6-hexahydro-2,6-methanobenzo[d]azocin-11-yl)-3-(furan-3-yl)-N-methylacrylamide] | 10.6 ± 1.18 | 92.7 ± 5.21 | 0.00015 ± 2e-05 | 77.7 ± 1.76 | – | Ki [1, 7]: 1.78 ± 0.38 nM; EC50 [4, 8]: 0.00267 ± 0.00084 µM
6 | COc1ccc2c(c1)C1(C)CCN(C)C(C2)C1=NO (centres unmarked) [Compound 2, 8-methoxy-3,6-dimethyl-1,2,3,4,5,6-hexahydro-2,6-methanobenzo[d]azocin-11-one Oxime] | – | – | 2.58 ± 0.122 | – | > 20000 | –
7 | CCC=C1C2Cc3ccc(OC)cc3C1(C)CCN2C (centres unmarked) [Compound 6, 8-methoxy-3,6-dimethyl-11-propylidene-1,2,3,4,5,6-hexahydro-2,6-methanobenzo[d]azocine] | – | – | 3.16 ± 1.24 | – | > 20000 | –
8 | CCN(CC)CCON=C1C2Cc3ccc(OC)cc3C1(C)CCN2C (centres unmarked) [Compound 5, 8-methoxy-3,6-dimethyl-1,2,3,4,5,6-hexahydro-2,6-methanobenzo[d]azocin-11-one O-(2-(diethylamino)ethyl)oxime] | – | – | 10.7 | – | > 20000 | –
9 | CN1CC[C@]2(C)c3cc(O)ccc3C[C@@H]1[C@H]2Nc1ccc(CCS(N)(=O)=O)cc1 [Compound 50, 2-(4-(((2R,6R,11S)-8-hydroxy-3,6-dimethyl-1,2,3,4,5,6-hexahydro-2,6-methanobenzo[d]azocin-11-yl)amino)phenyl)ethanesulfonamide] | 189 ± 13.7 | 93.8 ± 2.17 | 0.0583 ± 0.0101 | – | – | EC50 ([5]; bound in μM, read-out: GTPγS κ EC50): > 20 µM; Emax ([5]; relative to U69,593, read-out: GTPγS κ Emax): 9.78 ± 2.97%; EC50 ([6]; read-out: GTPγS μ EC50): 42 ± 10.9 nM; Emax ([6]; relative to DAMGO, read-out: GTPγS μ Emax): 86.5 ± 4.14%; EC50 ([4]; HEK-293 or CHO cells, bound in μM, read-out: GTPγS κ EC50): > 20 µM
10 | COc1ccc2c(c1)[C@@]1(C)CCN(C)C(C2)[C@H]1OCC(N)=O [Compound 4, 2-(((6R,11S)-8-methoxy-3,6-dimethyl-1,2,3,4,5,6-hexahydro-2,6-methanobenzo[d]azocin-11-yl)oxy)acetamide] | – | – | – | – | > 20000 | Ki ([3]; bound in μM): > 20 µM
